Results: ChEMBL document CHEMBL1201862, “PubChem BioAssay data set” (2004)
The source made the active and inactive calls.

How the values were obtained:
[1] = non-specific 3'UTR reporter inhibition in Clone20-Shn3RL – cell-based, Renilla luciferase, cherry-picked, counter-screen for Shn3 inhibitor project, dose response (AID 624133); format: functional
[2] = reduction of Shn3 3'UTR-driven luciferase in osteoblasts – cell-based, Clone20 osteoblasts, firefly luciferase, cherry-picked, dose response (AID 624132); format: functional;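 also: firefly luciferase luminescence from reporter carrying the Shn3 3'UTR in osteoblasts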
HEK293 [3] = assay: EBV LMP1 TES2 canonical NF-kB signalling blockers – cell-based, HEK293, luciferase, cherry-pick, dose response (AID 588343); format: functional; settings: Homo sapiens
Protein skinhead-1 = target: T1, Protein skinhead-1 (Caenorhabditis elegans, UniProt P34707); format: functional
T1 sequence (P34707 whole entry): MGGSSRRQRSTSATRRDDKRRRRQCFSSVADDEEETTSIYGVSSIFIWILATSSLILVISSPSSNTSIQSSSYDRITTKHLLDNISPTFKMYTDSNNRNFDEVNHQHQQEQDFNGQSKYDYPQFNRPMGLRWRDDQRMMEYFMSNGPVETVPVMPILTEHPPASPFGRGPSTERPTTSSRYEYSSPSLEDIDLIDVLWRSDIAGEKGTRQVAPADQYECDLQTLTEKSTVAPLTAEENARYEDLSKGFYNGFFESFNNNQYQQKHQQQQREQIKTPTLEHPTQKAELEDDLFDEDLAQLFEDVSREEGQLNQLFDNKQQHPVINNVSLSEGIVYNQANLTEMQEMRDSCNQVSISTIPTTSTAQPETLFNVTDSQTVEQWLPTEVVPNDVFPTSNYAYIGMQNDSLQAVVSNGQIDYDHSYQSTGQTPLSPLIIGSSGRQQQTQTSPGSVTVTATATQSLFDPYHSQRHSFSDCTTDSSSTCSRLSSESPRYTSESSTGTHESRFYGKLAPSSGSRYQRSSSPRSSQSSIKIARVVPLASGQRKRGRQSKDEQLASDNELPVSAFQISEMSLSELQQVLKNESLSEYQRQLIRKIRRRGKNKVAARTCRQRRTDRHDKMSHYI

[4] = Luminescence Cell-Based Dose Response HTS to Identify Activators of Luciferase Translation or Activity in H4 […] Cells. [Related pubchem assays: 1829 (Project Summary), 1814 (Primary HTS)]; format: functional
H4 = assay: Luminescence Cell-Based Dose Response HTS to Identify Activators of 5'UTR Stem-Loop Driven Prion Protein mRNA Translation in H4 Neuroglioblastoma Cells. [Related pubchem assays: 1829 (Project Summary), 1814 (Primary HTS)]; format: functional; settings: Homo sapiens
HeLa = assay: ATP-based viability loss in HeLa cells – cell-based, CellTiter-Glo luminescence, cherry-pick samples, cytotoxicity control for MITF activator project, dose response (AID 540259); format: functional; settings: Homo sapiens
[5] = Luminescence Cell-Based Dose Confirmation HTS to Identify Activators of 5'UTR Stem-Loop Driven Alpha-Synuclein mRNA Translation in H4 Neuroglioblastoma Cells. [Related pubchem assays: 1829 (Project Summary), 1814 (Primary HTS)]; format: functional
Cytochrome P450 2C9 = Cytochrome P450 2C9 (Homo sapiens, UniProt P11712)
Cytochrome P450 2C9, sequence (P11712 whole entry): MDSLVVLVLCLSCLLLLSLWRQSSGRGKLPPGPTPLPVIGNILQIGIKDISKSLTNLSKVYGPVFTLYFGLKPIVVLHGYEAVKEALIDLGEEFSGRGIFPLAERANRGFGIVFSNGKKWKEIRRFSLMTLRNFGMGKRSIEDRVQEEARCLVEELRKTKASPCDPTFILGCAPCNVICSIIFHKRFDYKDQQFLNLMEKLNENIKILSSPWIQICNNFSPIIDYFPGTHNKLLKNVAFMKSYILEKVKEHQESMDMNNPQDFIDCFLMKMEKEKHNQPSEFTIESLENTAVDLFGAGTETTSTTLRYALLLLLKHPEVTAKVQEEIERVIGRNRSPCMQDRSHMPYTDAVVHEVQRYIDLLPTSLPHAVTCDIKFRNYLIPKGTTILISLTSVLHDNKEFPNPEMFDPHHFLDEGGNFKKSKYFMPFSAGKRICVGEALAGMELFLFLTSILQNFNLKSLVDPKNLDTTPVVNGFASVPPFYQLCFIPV

[6] = target: T2, Sentrin-specific protease 7 (Homo sapiens, UniProt Q9BQF6); format: functional;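 also: Luminescence-based dose-response confirmation of ultra-high-throughput screening hits, measuring inhibition of SENP7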
T2 sequence (Q9BQF6 whole entry): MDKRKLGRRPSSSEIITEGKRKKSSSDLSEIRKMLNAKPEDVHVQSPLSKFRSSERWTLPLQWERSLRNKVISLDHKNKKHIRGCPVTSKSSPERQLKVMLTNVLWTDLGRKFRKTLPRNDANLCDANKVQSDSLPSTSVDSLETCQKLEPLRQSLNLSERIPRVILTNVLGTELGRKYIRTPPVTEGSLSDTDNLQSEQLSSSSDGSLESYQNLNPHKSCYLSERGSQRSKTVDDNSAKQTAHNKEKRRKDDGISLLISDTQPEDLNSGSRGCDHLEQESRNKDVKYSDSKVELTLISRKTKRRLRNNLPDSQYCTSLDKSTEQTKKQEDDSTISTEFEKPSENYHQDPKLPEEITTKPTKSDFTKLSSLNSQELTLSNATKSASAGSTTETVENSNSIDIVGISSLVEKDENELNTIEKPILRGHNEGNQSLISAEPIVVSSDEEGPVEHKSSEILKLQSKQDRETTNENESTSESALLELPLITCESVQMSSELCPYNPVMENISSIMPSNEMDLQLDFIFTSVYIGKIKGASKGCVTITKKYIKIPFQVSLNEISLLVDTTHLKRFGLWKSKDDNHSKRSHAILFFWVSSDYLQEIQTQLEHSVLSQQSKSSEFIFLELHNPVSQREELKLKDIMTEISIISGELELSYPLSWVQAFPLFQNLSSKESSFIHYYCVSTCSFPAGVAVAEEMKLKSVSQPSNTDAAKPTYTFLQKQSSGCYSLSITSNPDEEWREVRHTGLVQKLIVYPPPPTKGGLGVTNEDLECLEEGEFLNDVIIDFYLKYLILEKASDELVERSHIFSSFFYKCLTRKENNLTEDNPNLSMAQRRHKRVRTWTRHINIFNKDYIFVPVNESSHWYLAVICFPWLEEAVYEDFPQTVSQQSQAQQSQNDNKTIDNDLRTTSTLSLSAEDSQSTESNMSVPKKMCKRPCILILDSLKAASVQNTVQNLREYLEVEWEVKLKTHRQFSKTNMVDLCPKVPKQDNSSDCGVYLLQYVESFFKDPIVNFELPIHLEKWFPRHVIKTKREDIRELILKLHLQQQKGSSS

[7] = target: T3, Sentrin-specific protease 8 (Homo sapiens, UniProt Q96LD8); format: functional;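 also: luminescence read-out of SENP8 inhibition, dose-response confirmation following an ultra-high-throughput screen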
T3 sequence (Q96LD8 whole entry): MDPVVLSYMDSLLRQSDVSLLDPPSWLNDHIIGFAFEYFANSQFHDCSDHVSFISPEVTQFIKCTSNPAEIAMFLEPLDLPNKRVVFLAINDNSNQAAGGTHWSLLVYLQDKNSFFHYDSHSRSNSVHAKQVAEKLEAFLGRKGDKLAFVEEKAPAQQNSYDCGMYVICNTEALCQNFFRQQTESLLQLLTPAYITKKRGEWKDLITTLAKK

[8] = target: T4, Sentrin-specific protease 6 (Homo sapiens, UniProt Q9GZR1); format: functional;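 also: Luminescence-based dose-response confirmatory assay of SENP6 inhibition, following up an ultra-high-throughput screen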
T4 sequence (Q9GZR1 whole entry): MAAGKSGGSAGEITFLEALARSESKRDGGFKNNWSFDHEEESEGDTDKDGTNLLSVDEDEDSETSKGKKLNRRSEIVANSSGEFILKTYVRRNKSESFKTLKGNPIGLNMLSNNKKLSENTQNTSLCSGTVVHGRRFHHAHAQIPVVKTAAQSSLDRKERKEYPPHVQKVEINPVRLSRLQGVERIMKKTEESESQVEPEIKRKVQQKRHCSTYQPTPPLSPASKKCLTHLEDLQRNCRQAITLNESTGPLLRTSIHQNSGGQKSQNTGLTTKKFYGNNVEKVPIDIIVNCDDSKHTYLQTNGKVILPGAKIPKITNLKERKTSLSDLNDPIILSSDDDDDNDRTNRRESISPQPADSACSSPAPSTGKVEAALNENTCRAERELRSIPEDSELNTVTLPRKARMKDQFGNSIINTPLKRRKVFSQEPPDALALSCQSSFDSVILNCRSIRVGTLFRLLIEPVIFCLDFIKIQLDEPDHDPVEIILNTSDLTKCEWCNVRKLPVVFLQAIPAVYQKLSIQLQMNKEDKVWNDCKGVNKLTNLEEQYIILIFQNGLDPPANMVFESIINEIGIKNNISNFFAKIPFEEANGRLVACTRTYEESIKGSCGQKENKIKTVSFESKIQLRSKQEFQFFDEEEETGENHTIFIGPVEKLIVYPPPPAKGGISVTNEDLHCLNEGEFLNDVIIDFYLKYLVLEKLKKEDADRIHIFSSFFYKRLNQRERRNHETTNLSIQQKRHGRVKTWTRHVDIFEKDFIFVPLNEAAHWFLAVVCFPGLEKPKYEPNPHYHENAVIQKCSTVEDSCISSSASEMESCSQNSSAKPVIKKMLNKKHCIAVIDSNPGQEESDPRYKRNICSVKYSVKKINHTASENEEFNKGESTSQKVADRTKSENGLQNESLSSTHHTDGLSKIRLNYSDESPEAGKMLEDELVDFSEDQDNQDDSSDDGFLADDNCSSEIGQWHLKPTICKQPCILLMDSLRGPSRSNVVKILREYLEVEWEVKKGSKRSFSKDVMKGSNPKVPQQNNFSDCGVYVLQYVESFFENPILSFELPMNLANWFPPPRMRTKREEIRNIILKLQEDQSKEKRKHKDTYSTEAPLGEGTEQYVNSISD

Caspase-3 = target: T5, Caspase-3 (Homo sapiens, UniProt P42574); format: functional;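 also: Dose-response selectivity test against caspase-3 for candidate inhibitors of sentrin-specific proteases (SENPs)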
T5 sequence (P42574 whole entry): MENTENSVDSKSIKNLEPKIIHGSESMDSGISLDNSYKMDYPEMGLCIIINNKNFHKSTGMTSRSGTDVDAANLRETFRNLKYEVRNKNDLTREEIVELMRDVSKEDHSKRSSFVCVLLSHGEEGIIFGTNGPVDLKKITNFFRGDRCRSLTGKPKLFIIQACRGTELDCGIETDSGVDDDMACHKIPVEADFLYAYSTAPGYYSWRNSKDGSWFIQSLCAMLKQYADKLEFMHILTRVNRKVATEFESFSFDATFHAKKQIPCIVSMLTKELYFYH

[9] = target: T6, Nuclear receptor subfamily 0 group B member 1 (Homo sapiens, UniProt P51843); assay: Luminescence-based cell-based high throughput dose response assay for inhibitors of the orphan nuclear receptor subfamily 0, group B, member 1 (DAX1; NR0B1). [Related pubchem assays (depositor defined):AID504766, AID504790]; format: functional
T6 sequence (P51843 whole entry): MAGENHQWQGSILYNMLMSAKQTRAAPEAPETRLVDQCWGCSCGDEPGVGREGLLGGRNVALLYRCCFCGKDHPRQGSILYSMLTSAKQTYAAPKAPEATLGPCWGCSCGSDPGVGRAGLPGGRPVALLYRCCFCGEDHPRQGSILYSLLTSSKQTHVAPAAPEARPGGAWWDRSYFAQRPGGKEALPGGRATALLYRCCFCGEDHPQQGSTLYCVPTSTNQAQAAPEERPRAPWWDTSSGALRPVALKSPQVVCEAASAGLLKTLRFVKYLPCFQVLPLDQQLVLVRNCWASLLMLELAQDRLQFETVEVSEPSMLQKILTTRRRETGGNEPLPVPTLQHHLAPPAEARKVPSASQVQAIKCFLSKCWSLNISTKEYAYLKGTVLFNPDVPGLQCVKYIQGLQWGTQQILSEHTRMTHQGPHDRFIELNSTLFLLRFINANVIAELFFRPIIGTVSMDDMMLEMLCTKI

HEK293 [10] = assay: cells; format: functional, cell-based; settings: Homo sapiens
CAAX prenyl protease 2 [11] = target: CAAX prenyl protease 2 (Homo sapiens, UniProt Q9Y256); assay: inhibition of Ras-converting CAAX protease Rce1 – biochemical, yeast membranes, quenched-peptide fluorescence, cherry-pick, dose response (AID 588849)
CAAX prenyl protease 2 (Homo sapiens, UniProt Q9Y256), sequence (Q9Y256 whole entry): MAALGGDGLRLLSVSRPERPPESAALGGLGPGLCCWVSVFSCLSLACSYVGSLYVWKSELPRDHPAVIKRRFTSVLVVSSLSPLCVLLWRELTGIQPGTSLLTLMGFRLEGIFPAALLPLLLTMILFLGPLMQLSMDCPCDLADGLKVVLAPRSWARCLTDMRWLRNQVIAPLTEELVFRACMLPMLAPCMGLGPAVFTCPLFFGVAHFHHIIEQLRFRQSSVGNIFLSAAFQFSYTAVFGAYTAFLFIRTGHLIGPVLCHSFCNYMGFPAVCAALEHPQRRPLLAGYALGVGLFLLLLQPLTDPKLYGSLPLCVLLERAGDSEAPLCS

CAAX prenyl protease 2 [12] = target: T7, CAAX prenyl protease 2 (Saccharomyces cerevisiae S288c, UniProt Q03530); format: biochemical
T7 sequence (Q03530 whole entry): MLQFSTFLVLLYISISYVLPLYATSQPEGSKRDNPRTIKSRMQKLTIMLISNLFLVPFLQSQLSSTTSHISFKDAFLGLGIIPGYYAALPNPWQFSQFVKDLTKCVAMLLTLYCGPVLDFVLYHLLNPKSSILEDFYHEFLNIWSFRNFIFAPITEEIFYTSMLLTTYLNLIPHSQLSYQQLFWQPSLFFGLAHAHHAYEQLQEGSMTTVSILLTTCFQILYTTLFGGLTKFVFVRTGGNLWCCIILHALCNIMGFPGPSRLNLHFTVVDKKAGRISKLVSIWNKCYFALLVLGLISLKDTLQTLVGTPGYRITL

Trypsin = Trypsin (Sus scrofa, UniProt P00761); assay: trypsin protease activity blockade – biochemical, quenched peptide fluorescence, cherry-pick, selectivity assay for Rce1 protease inhibitor project, dose response (AID 488789)
Trypsin, sequence (P00761 whole entry): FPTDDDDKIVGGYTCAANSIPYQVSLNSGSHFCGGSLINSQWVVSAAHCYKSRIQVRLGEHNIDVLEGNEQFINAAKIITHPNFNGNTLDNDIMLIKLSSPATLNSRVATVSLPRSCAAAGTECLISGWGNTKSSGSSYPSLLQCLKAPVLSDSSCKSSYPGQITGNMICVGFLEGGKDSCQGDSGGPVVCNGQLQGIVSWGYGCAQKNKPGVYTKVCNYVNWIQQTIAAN

[13] = NIH-3T3 fibroblast cytotoxicity, dose response, cytotoxicity control, cell-based, fluorescence, Alamar Blue, secondary assay (AID 2327); format: functional;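 also: NIH-3T3 mouse fibroblasts cultured with fluconazole at 8 µg/mL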
[14] = fluconazole-exposed Candida albicans growth modulators – fluorescence, retest, confirmation (AID 2467); format: functional, cell-based
[15] = target: Serine/threonine-protein phosphatase (Candida dubliniensis (strain CD36 / CBS 7987 / NCPF 3949 / NRRLY-17841) (Yeast), UniProt B9W6M3); assay: blockers of CaCl2-induced CDRE-lacZ signaling – S. cerevisiae, luminescence, secondary, dose response (AID 2388); format: functional, cell-based;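 also: yeast reporter cells carrying a calcineurin-responsive lacZ construct stimulated with calcium chloride; luminescent beta-galactosidase reporter signal in whole cells rather than isolated phosphatase activity; potency for inhibition where a drop in reporter signal means calcineurin blockade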
Serine/threonine-protein phosphatase, sequence (B9W6M3 whole entry): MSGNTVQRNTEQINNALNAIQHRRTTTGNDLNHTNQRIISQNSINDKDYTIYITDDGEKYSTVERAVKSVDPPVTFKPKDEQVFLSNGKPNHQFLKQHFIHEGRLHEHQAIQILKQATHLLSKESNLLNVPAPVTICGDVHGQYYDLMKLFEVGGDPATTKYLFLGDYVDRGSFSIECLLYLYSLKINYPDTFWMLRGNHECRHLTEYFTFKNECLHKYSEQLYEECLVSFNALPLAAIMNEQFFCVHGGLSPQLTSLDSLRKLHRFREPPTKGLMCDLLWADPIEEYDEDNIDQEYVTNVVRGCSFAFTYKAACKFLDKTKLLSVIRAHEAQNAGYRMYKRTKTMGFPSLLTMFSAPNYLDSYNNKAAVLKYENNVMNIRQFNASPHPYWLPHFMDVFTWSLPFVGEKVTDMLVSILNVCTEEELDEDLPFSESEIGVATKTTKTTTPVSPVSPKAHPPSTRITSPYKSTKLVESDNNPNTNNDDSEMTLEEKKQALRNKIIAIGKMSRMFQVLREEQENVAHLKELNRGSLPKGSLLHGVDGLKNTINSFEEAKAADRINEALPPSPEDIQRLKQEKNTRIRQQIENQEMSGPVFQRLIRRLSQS

[16] = target: ATP-dependent molecular chaperone HSP82 (Candida albicans (strain WO-1) (Yeast), UniProt C4YTQ8); assay: steroid-induced GRE reporter decrease in yeast – S. cerevisiae, luminescence, Hsp90 inhibitor project, dose response (AID 2400); format: functional, cell-based;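 also: beta-galactosidase luminescence from glucocorticoid response element reporter as proxy for Hsp90 function; inhibitor potency where signal loss means Hsp90 inhibition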
ATP-dependent molecular chaperone HSP82, sequence (C4YTQ8 whole entry): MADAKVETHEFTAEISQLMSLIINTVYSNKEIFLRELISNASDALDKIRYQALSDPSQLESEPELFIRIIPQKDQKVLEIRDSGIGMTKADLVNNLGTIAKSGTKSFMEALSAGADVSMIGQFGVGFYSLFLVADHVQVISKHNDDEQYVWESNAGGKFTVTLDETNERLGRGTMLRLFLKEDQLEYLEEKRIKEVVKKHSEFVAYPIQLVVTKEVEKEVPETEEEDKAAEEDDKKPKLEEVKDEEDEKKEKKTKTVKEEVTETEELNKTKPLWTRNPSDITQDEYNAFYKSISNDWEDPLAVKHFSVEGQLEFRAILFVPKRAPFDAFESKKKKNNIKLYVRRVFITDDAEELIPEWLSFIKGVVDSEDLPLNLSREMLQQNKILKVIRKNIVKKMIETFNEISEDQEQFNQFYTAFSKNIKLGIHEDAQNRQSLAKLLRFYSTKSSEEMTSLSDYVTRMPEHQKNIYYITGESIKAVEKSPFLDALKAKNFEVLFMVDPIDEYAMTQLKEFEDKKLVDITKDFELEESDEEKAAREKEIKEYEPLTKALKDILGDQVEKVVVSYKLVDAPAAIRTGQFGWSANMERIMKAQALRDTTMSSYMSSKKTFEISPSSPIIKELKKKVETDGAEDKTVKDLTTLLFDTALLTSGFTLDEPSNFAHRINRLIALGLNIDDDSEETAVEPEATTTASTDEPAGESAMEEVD

## Cc1ccc(-c2nc3cccnc3o2)cc1NC(=O)COc1ccc(C(C)(C)C)cc1
[1]
  AC50: 14.6 µM (active)
[2]
  AC50: 10.8 µM (active)
HEK293 [3]
  AC50: 36.3 µM (active)
Protein skinhead-1
  IC50: > 100 µM (inactive)

## O=c1oc2cc(Cl)ccc2n1CSc1nc2ccccc2s1
[4]
  EC50: 24.4 µM (active)
H4
  EC50: 50.8 µM (active)
HeLa
  AC50: 216 µM (active)
[5]
  EC50: 24.1 µM (active)

## Cc1cccc(CNc2ncnc3ccc(-c4ccoc4)cc23)c1
HEK293 [3]
  AC50: 35.1 µM (active)
Cytochrome P450 2C9
  AC50: 1 µM (inconclusive)

## O=C(Nc1cccs1)Nc1ccccc1Br
[6]
  IC50: 8.26 µM (active)
[7]
  IC50: 57.6 µM (active)
[8]
  IC50: 33.5 µM (active)
Caspase-3
  IC50: 20.3 µM (active)

## O=C(CNC(=O)c1cc(O)nc2ccccc12)Nc1ccc(F)c(F)c1
[9]
  IC50: > 67.5 µM (inactive)
HEK293 [10]
  IC50: > 67.5 µM (inactive)

## Cc1oc2c(CN3CCOCC3)c(O)ccc2c(=O)c1-c1ccccc1
CAAX prenyl protease 2 [11]
  AC50: 10.3 µM (active)
CAAX prenyl protease 2 [12]
  AC50: 11 µM (active)
Trypsin
  AC50: 9.64 µM (active)

## COc1ccc(C2C3=C(O)CC(C)(C)CC3=Nc3[nH]nc(C)c32)cc1 (stereo unspecified)
CAAX prenyl protease 2 [11]
  AC50: 13.5 µM (active)
Trypsin
  AC50: > 100 µM (inactive)

## Cc1c(OCC(=O)NCC(O)c2ccccc2)ccc2c(-c3ccccc3)cc(=O)oc12 (stereo unspecified)
[13]
  EC50: 80.8 µM (active)
[14]
  EC50: 0.699 µM (active)
[15]
  EC50: > 180 µM (inactive)
[16]
  EC50: > 160 µM (inactive)

## O=c1c2ccccc2oc2cc(-c3ccc4cc[nH]c4c3)ccc12
HeLa
  AC50: 53.5 µM (active)
